System: NO production in LPS-stimulated RAW 264.7 macrophage cells
Test: Inhibition of nitric oxide (NO) production in LPS-stimulated murine macrophages (RAW 264.7), Griess reagent
Format: cell-based
Conditions: 3 h pre-treatment, then 5 ng/ml LPS overnight; FO 15 μM, DIM 15 μM, BC-concentrated TQ 10 μM; FIG. 3
Description: These two different BC preparations were then tested for their ability to inhibit NO production, in accordance with the method described hereinbelow in Example 4.
BC-concentrated TQ (obtained from TriNutra. Ness Ziona, Israel), Omega-3 oil (fish oil—FO) and Diindolylmethane (DIM) were tested on a macrophage murine cellular system (RAW 264.7) before stimulation with Lipopolysaccharide (LPS), an endotoxin which induces a strong response from normal animal immune systems.
Cells were thawed, grown and managed according to standard protocols.
On Day 0, cells were seeded in 6-well plates at concentrations of 6×10^5. Volume of medium per well was 2 ml. Cells were seeded in triplicates for each treatment and for each control.
Culture Medium • 10% FCS, 1% Penicillin-Streptomycin Solution, 2% Glutamine 2% were added to DMEM (final volume −500 ml) and filtered. Medium was kept at 2-8° C. until use.
10 mg LPS was dissolved in 10 ml sterile water aliquoted and kept at −20° C.
Before use 1 aliquot was defrosted and diluted in culture media to final concentration of 5 ng/ml.
MW of Fish oil 300 g/mol.
Test items were dissolved in 100% ethanol to form 100 mM concentration.
Further dilutions were made in culture medium. 10% of test item in concentration×10 was added to each well according to study plan.
Stock solution (100 mM) was prepared in 100% DMSO. […]

c1ccc2c(Cc3c[nH]c4ccccc34)c[nH]c2c1 [DIM, 3,3′-Diindolylmethane]
inhibition of NO production when tested separately: caused inhibition of NO production
